From ChEMBL document CHEMBL3991601, “The target landscape of clinical kinase drugs” (Science, 2017)
pKd: −log10 of the molar value. Calls of active or inactive are those of the source. On the calls: in the data inactive means no Kd found up to 30 µM.

What was measured:
[1] = biological target: Serine/threonine-protein kinase pim-2 (Homo sapiens, UniProt Q9P1W9)
[2] = biological target: Serine/threonine-protein kinase Nek7 (Homo sapiens, UniProt Q8TDX7)
[3] = biological target: Serine/threonine-protein kinase PAK 6 (Homo sapiens, UniProt Q9NQU5)
[4] = biological target: T1, Protein kinase C zeta type (Homo sapiens, UniProt Q05513)
T1 sequence (Q05513 whole entry): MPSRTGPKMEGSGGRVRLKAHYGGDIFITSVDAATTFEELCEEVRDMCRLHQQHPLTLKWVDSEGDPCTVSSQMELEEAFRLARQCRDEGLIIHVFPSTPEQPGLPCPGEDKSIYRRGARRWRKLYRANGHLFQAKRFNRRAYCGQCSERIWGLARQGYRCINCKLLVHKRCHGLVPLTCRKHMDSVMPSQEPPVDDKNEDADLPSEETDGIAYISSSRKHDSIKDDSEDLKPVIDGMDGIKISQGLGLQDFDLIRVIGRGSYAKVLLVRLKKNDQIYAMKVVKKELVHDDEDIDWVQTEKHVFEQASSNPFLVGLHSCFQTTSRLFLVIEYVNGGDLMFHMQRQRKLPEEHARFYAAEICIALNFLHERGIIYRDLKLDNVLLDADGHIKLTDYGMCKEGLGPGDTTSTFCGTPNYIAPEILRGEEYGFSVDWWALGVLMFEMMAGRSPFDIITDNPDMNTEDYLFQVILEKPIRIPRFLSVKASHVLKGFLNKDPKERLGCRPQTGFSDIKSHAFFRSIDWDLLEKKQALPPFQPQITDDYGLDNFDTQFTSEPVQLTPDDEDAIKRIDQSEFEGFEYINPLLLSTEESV

[5] = biological target: Misshapen-like kinase 1 (Homo sapiens, UniProt Q8N4C8)
[6] = biological target: Dual specificity testis-specific protein kinase 2 (Homo sapiens, UniProt Q96S53)
[7] = biological target: T2, UMP-CMP kinase (Homo sapiens, UniProt P30085)
T2 sequence (P30085 whole entry): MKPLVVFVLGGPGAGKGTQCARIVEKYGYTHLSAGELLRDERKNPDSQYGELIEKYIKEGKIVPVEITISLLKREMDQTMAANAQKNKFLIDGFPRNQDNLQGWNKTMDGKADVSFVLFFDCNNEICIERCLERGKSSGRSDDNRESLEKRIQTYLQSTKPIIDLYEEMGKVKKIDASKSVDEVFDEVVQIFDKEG

[8] = biological target: Uncharacterized aarF domain-containing protein kinase 5 (Homo sapiens, UniProt Q3MIX3)
[9] = biological target: MAP kinase-activated protein kinase 3 (Homo sapiens, UniProt Q16644)
Chain of MAP kinase-activated protein kinase 3 (Q16644 whole entry): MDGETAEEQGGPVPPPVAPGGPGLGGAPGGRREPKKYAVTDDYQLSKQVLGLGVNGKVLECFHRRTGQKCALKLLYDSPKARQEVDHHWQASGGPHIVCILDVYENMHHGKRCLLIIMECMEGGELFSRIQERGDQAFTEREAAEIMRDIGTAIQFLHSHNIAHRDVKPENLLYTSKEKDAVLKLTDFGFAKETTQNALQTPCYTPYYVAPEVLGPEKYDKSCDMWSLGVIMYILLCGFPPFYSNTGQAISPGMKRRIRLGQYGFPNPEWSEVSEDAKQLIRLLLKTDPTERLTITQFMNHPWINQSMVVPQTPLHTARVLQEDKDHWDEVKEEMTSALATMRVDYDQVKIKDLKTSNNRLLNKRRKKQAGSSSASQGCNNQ

Chain of Serine/threonine-protein kinase Nek7 (Q8TDX7 whole entry): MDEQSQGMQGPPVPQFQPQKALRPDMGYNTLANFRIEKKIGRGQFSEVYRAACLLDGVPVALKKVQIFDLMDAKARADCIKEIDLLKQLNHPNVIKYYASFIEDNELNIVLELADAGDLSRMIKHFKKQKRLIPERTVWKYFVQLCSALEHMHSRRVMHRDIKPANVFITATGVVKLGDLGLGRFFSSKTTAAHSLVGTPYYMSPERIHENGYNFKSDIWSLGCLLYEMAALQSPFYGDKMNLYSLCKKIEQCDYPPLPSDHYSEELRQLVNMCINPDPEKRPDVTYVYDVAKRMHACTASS
Chain of Uncharacterized aarF domain-containing protein kinase 5 (Q3MIX3 whole entry, the tested form may be a part): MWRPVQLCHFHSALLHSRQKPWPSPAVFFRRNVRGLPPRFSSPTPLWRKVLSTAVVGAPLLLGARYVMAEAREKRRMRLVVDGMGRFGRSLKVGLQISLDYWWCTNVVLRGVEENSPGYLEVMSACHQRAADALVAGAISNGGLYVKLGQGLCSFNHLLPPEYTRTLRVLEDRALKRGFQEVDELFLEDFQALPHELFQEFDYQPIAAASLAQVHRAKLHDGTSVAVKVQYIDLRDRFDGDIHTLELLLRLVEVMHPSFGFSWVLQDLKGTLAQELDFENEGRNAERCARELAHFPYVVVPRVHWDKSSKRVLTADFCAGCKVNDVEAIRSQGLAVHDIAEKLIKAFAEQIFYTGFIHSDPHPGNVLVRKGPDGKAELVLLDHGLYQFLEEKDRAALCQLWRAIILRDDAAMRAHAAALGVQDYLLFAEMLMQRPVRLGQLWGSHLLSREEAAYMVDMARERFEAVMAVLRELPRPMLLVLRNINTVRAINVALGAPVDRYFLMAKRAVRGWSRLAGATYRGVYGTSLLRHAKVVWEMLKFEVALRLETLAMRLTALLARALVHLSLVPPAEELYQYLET
Chain of Dual specificity testis-specific protein kinase 2 (Q96S53 whole entry): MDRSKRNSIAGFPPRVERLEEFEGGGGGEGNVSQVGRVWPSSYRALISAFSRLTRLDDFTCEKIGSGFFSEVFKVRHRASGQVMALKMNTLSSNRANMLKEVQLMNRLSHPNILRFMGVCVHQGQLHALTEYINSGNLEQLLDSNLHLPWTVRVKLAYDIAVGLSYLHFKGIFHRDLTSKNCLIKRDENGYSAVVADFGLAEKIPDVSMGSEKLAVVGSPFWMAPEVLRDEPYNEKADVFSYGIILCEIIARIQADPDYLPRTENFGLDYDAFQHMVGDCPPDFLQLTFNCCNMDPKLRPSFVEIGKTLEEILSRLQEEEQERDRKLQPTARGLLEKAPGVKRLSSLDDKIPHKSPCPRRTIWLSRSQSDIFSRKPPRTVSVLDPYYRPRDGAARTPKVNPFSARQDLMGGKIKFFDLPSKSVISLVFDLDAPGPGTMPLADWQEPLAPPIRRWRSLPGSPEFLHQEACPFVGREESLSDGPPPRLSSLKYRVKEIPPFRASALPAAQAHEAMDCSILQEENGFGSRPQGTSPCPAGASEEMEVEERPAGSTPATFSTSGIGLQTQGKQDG
Chain of Serine/threonine-protein kinase pim-2 (Q9P1W9 whole entry): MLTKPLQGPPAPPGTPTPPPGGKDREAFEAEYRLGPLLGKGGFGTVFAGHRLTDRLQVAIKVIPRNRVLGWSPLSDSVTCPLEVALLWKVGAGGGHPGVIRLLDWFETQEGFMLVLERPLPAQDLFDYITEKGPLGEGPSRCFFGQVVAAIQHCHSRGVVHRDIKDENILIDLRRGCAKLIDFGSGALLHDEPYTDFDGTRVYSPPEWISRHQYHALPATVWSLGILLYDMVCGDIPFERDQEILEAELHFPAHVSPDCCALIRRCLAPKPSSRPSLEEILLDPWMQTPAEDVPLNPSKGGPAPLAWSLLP
Chain of Serine/threonine-protein kinase PAK 6 (Q9NQU5 whole entry): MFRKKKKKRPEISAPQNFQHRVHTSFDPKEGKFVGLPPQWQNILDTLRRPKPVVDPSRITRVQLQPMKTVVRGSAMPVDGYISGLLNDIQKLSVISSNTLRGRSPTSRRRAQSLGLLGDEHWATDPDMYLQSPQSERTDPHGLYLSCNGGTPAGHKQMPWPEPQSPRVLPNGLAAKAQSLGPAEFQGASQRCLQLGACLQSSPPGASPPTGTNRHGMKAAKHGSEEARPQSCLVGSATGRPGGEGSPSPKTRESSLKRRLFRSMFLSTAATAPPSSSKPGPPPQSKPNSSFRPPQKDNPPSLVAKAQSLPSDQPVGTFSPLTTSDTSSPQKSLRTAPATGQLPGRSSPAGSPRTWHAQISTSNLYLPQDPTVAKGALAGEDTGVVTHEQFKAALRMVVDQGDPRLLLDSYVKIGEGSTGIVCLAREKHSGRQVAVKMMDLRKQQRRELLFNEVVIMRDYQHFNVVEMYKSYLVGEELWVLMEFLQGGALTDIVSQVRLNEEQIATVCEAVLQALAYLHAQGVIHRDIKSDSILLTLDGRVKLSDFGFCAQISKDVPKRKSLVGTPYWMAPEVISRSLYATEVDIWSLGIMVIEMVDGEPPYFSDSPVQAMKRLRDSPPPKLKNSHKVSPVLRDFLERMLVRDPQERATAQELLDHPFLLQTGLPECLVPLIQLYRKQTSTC
Chain of Misshapen-like kinase 1 (Q8N4C8 whole entry): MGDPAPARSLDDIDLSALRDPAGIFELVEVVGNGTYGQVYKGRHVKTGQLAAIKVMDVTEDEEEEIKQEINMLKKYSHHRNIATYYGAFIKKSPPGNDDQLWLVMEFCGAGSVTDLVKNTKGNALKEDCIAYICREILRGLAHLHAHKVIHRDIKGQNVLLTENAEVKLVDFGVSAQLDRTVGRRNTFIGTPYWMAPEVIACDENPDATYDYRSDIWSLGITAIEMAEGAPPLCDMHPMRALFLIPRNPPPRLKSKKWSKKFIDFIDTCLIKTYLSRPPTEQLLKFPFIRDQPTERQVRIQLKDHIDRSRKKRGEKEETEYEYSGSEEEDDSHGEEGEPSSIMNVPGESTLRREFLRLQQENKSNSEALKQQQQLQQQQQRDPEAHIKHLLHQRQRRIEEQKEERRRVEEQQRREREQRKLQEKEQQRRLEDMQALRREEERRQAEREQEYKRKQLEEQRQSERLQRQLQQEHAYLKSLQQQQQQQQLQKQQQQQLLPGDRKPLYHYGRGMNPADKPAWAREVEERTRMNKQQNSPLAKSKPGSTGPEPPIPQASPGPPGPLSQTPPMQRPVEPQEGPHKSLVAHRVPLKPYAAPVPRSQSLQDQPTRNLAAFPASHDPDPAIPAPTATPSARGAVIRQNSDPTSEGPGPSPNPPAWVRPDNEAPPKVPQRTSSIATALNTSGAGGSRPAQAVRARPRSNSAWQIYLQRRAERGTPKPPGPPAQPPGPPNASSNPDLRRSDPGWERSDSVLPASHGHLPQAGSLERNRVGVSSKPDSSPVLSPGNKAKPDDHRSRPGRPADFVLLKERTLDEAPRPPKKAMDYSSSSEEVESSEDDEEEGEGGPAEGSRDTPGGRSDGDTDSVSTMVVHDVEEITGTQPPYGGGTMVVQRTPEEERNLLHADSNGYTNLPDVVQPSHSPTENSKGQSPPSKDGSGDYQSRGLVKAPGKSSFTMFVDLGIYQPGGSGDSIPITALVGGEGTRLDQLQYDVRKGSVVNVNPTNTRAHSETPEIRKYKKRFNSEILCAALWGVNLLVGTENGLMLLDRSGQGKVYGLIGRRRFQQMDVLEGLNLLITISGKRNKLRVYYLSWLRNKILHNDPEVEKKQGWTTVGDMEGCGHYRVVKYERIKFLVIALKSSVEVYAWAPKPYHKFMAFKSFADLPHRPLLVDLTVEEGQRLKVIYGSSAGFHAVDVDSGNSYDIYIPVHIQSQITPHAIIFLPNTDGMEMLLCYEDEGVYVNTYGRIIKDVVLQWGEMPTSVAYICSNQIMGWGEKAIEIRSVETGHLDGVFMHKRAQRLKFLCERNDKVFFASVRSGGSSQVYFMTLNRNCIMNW

SMILES | Kd [1] | Kd [2] | Kd [3] | Kd [4] | Kd [5] | Kd [6] | Kd [7] | Kd [8] | Kd [9] | pKd [5]
C[C@@H](Oc1cc(C(=O)Nc2ccc(C(=O)N3CCN(C)CC3)cc2)nnc1N)c1c(Cl)ccc(F)c1Cl | > 30 µM (inactive) | > 30 µM (inactive) | > 30 µM (inactive) |  |  |  |  |  |  | 
C[C@H]1CNCCCN1S(=O)(=O)c1cccc2cncc(F)c12 |  | > 30 µM (inactive) | > 30 µM (inactive) | > 30 µM (inactive) | > 30 µM (inactive) | > 30 µM (inactive) |  |  |  | 
CC(=O)c1cnc2ccc(-c3cc(Cl)c(O)c(Cl)c3)nc2c1N[C@H]1CC[C@H](CN(C)C)CC1 |  | > 30 µM (inactive) |  |  |  |  | > 30 µM (inactive) |  |  | 
CCNC(=O)C#Cc1ccc2c(c1)NC(=O)/C2=C(\Nc1ccc(CN(C)C)cc1)c1ccccc1 |  | > 30 µM (inactive) |  | > 30 µM (inactive) | > 30 µM (inactive) |  |  |  |  | 
COc1cc(Nc2ncc3c(n2)-c2ccc(Cl)cc2C(c2c(F)cccc2OC)=NC3)ccc1C(=O)O [ALISERTIB] |  | > 30 µM (inactive) | > 30 µM (inactive) |  |  | > 30 µM (inactive) | > 30 µM (inactive) | > 30 µM (inactive) |  | 
Cc1nc(NC(=O)N2CCC[C@H]2C(N)=O)sc1-c1ccnc(C(C)(C)C(F)(F)F)c1 [ALPELISIB] |  |  |  |  | > 30 µM (inactive) |  | > 30 µM (inactive) |  |  | 
O=C(Nc1c[nH]nc1-c1nc2cc(CN3CCOCC3)ccc2[nH]1)NC1CC1 [AT-9283] | > 30 µM (inactive) | > 30 µM (inactive) | 0.213 µM (active) |  | > 30 µM (inactive) | > 30 µM (inactive) | > 30 µM (inactive) | > 30 µM (inactive) |  | 
C=CC(=O)Nc1cc2c(Nc3ccc(F)c(Cl)c3)ncnc2cc1C#CC(C)(C)N1CCN(C)CC1 [AV-412 FREE BASE] | > 30 µM (inactive) |  | > 30 µM (inactive) | > 30 µM (inactive) |  | > 30 µM (inactive) |  | > 30 µM (inactive) | > 30 µM (inactive) | 
CNC(=O)c1ccccc1Sc1ccc2c(/C=C/c3ccccn3)n[nH]c2c1 [AXITINIB] |  |  |  | > 30 µM (inactive) |  |  | > 30 µM (inactive) |  |  | 
COc1cc([C@@H]2c3cc4c(cc3[C@H](O)[C@H]3COC(=O)[C@@H]23)OCO4)cc(OC)c1OC [AXL-1717] | > 30 µM (inactive) |  |  |  |  |  | > 30 µM (inactive) |  |  | 
NC(=O)Nc1cc(-c2cccc(F)c2)sc1C(=O)N[C@H]1CCCNC1 [AZD-7762] | > 30 µM (inactive) | > 30 µM (inactive) |  |  |  | > 30 µM (inactive) | > 30 µM (inactive) | > 30 µM (inactive) |  | 
Cc1cc(C(=O)NOCCO)c(Nc2ccc(I)cc2F)n(C)c1=O [AZD-8330] |  | > 30 µM (inactive) |  |  | > 30 µM (inactive) |  | > 30 µM (inactive) | > 30 µM (inactive) |  | 
CCn1c(C(=O)N(C2CC2)C2CC2)cc2c3c(ncn3C)c(Nc3cc(C)n(C)n3)nc21 [BMS-911543] |  | > 30 µM (inactive) | > 30 µM (inactive) |  |  |  | > 30 µM (inactive) | > 30 µM (inactive) | > 30 µM (inactive) | 
Cn1cc(C2=C(c3cn(C4CCN(Cc5ccccn5)CC4)c4ccccc34)C(=O)NC2=O)c2ccccc21 [ENZASTAURIN] |  |  |  |  |  | > 30 µM (inactive) |  |  | > 30 µM (inactive) | 
Cc1nc2cc(-n3ncc(C(=O)c4cc5ccccc5[nH]4)c3N)ccc2[nH]1 [FGFR INHIBITOR DEBIO 1347] | > 30 µM (inactive) |  |  |  |  | > 30 µM (inactive) | > 30 µM (inactive) |  |  | 
O=C(Nc1nc2cccc(-c3ccc(CN4CCS(=O)(=O)CC4)cc3)n2n1)C1CC1 [FILGOTINIB] | > 30 µM (inactive) | > 30 µM (inactive) | > 30 µM (inactive) |  | > 30 µM (inactive) |  | > 30 µM (inactive) | > 30 µM (inactive) |  | 
Cc1cccc(-c2nn3c(c2-c2ccnc4ccc(C(N)=O)cc24)CCC3)n1 [GALUNISERTIB] | > 30 µM (inactive) | > 30 µM (inactive) | > 30 µM (inactive) |  |  | > 30 µM (inactive) |  |  |  | 7.74
C[C@@H](Oc1cc(-n2cnc3ccc(CN4CCN(C)CC4)cc32)sc1C(N)=O)c1ccccc1C(F)(F)F [GSK-461364] |  |  |  | > 30 µM (inactive) |  | > 30 µM (inactive) |  | > 30 µM (inactive) | > 30 µM (inactive) | 
CCn1cc(-c2ccnc3[nH]c(-c4cccc(CN(C)C)c4)cc23)c(-c2ccc(NC(=O)N(C)C)cc2)n1 [GSK-1070916] | > 30 µM (inactive) | > 30 µM (inactive) | > 30 µM (inactive) |  |  | > 30 µM (inactive) |  | > 30 µM (inactive) |  | 

SMILES | Kd [1] | Kd [2] | Kd [3] | Kd [4] | Kd [5] | Kd [6] | Kd [7] | Kd [8] | Kd [9] | pKd [5]
COc1ccc(S(=O)(=O)N(C(C)=O)c2ccccc2/C=C/c2cc[n+]([O-])cc2)cc1 [HMN-214] | > 30 µM (inactive) | > 30 µM (inactive) | > 30 µM (inactive) | > 30 µM (inactive) |  | > 30 µM (inactive) |  | > 30 µM (inactive) |  | 
CNC(=O)c1cccc2cc(Oc3ccnc4cc(OCC5(N)CC5)c(OC)cc34)ccc12 [LUCITANIB] | > 30 µM (inactive) | > 30 µM (inactive) |  |  | > 30 µM (inactive) |  | > 30 µM (inactive) |  |  | 
CN(C[C@@H]1COCCO1)S(=O)(=O)Nc1ccc2ccc3ncc(-c4cnn(C)c4)cc3c(=O)c2c1 [MK-2461] | > 30 µM (inactive) |  |  |  | > 30 µM (inactive) |  | > 30 µM (inactive) |  |  | 
Cn1cc(-c2cnc3ccc4ccc(CS(=O)(=O)NCc5ccccn5)cc4c(=O)c3c2)cn1 [MK-8033] | > 30 µM (inactive) | > 30 µM (inactive) | > 30 µM (inactive) |  |  |  | > 30 µM (inactive) | > 30 µM (inactive) |  | 
Cc1[nH]c(/C=C2\C(=O)Nc3ccccc32)c(C)c1CCC(=O)O [ORANTINIB] |  | > 30 µM (inactive) | > 30 µM (inactive) |  |  | > 30 µM (inactive) |  | > 30 µM (inactive) |  | 
NC(=O)c1c(OCc2c(F)cc(Br)cc2F)nsc1NC(=O)NCCCCN1CCCC1 [OSI-632] |  |  | > 30 µM (inactive) |  |  |  |  | > 30 µM (inactive) |  | 
CCCCCCCCCCCCCCCCCCOP(=O)([O-])OC1CC[N+](C)(C)CC1 [PERIFOSINE] | > 30 µM (inactive) |  |  |  |  |  | > 30 µM (inactive) |  |  | 
Cc1nc(Nc2n[nH]c3c2CN(C(=O)N[C@H](CN(C)C)c2ccccc2)C3(C)C)c2sccc2n1 [PF-03758309] |  |  | 0.003 µM (active) | > 30 µM (inactive) | > 30 µM (inactive) | > 30 µM (inactive) | > 30 µM (inactive) | > 30 µM (inactive) |  | 
N#CC1(c2ccc(NC(=O)c3cccnc3NCc3ccncc3)cc2)CCCC1 [RIVOCERANIB] |  | > 30 µM (inactive) | > 30 µM (inactive) | > 30 µM (inactive) |  | > 30 µM (inactive) | > 30 µM (inactive) | > 30 µM (inactive) |  | 
O=C(NOCCO)c1cc(CN2OCCCC2=O)c(F)c(F)c1Nc1ccc(I)cc1F [RO-4987655] |  |  |  | > 30 µM (inactive) |  | > 30 µM (inactive) |  | > 30 µM (inactive) | > 30 µM (inactive) | 
CN1CCN(CCOc2cc(OC3CCOCC3)c3c(Nc4c(Cl)ccc5c4OCO5)ncnc3c2)CC1 [SARACATINIB] | > 30 µM (inactive) | > 30 µM (inactive) | > 30 µM (inactive) | > 30 µM (inactive) |  |  |  |  |  | 
Cn1cc(-c2cnn3c(N)c(Br)c([C@@H]4CCCNC4)nc23)cn1 [SCH-900776] |  | > 30 µM (inactive) | > 30 µM (inactive) | > 30 µM (inactive) | > 30 µM (inactive) |  | > 30 µM (inactive) |  |  | 
O=C(Cc1ccc(-c2ccc(OCCN3CCOCC3)cc2)cn1)NCc1ccccc1 [TIRBANIBULIN] | > 30 µM (inactive) | > 30 µM (inactive) |  | > 30 µM (inactive) | > 30 µM (inactive) | > 30 µM (inactive) | > 30 µM (inactive) | > 30 µM (inactive) |  | 
O=C1NC(=O)[C@@H](c2cn3c4c(cccc24)CCC3)[C@@H]1c1c[nH]c2ccccc12 [TIVANTINIB] | > 30 µM (inactive) | > 30 µM (inactive) | > 30 µM (inactive) | > 30 µM (inactive) |  | > 30 µM (inactive) | > 30 µM (inactive) | > 30 µM (inactive) | > 30 µM (inactive) | 
Cn1ncc(Cl)c1-c1cc(C(=O)N[C@H](CN)Cc2ccc(F)c(F)c2)oc1Cl [UPROSERTIB] | > 30 µM (inactive) |  | > 30 µM (inactive) |  |  |  | > 30 µM (inactive) |  |  | 
CC(C)c1cc(CNc2nc(Nc3cc(C4CC4)[nH]n3)cc(N3CCN(C)CC3)n2)on1 [XL-228] | > 30 µM (inactive) | > 30 µM (inactive) | > 30 µM (inactive) |  |  |  |  |  |  | 
C[C@@H](N)c1ccc(C(=O)Nc2ccnc3[nH]ccc23)cc1 [Y-39983] |  |  | > 30 µM (inactive) |  |  |  |  |  | > 30 µM (inactive) | 
CN1C/C=C/CCOc2cccc(c2)-c2ccnc(n2)Nc2cccc(c2)C1 [ZOTIRACICLIB] |  | > 30 µM (inactive) |  | > 30 µM (inactive) |  |  |  |  |  | 
